The record followed here is US4985428A, “Isoxazoles with nootropic activity” (Zambon Group S.p.A., priority 1987, dated 1991).

Where two headings read alike, the source gives them in different places.

The test system of the test is electroshock (ECS) amnesia in rat. The test can be described thus: electroshock (ECS) amnesia test in rat. Type of test: in vivo. Conditions: male rats, dose improving retention time by 50% of Δt vs ECS control. How it is done:
The compounds of formula I are active on central nervous system and they can be used in pharmaceutical field as nootropics. By the electroshock (ECS) amnesia test, described in example 8, in rat the pharmacological activity of the compounds object of the present invention was evaluated in comparison with the activity of Piracetam and Aniracetam. Pharmacodynamic evaluation: electroshock (ECS) amnesia test in rat Male rats weighing 130-150 g and fasting for at least 12 hours before the beginning of the test were used. The test consisted in two experiments with a resting interval of 24 hours between them. First experiment: training session The animals were trained to associate the passage from a light partition to a dark one, in a suitable box, with a noxious stimulation that is an electric stimulation through an electrified grid (foot-shock: 1 mA for 10 seconds). Second experiment: retention session The ability of the animals to remember was evaluated as the time utilized to repeat the passage through the partitions (retention time). Evaluation of the retention time in control groups of animals The test was carried out first on two groups of animals as control. […] Fixing 60 seconds as time-limit for performing the second experiment, the average time (retention time) utilized for the passage was 54 seconds for the control and 32 seconds for the ECS control. Evaluation of the retention time in groups of treated animals Groups of 20 rats underwent the training session, the treatment for inducing amnesia and the retention session after administration of the compounds object of the present invention and of the reference compounds, Piracetam and Aniracetam. The administration was carried out 30 minutes before the training session in case of intraperitoneal administration (i.p.) and 60 minutes before in case of administration by oral route. At least three doses each compound and each administration route were tested. The difference between the retention time of the control and the retention time of the ECS control was considered as reference (Δt) and it was fixed, as percentage, equal to 100. In the groups of animals which were treated and underwent ECS the activity against amnesia of the compounds object of the present invention was expressed as ED50 that is as the dose of compound able to give an improvement of the retention time equal to 50% of the reference interval (Δt) in comparison with the ECS control.

The mark [1] stands for this setting: ip, intraperitoneal, 30 minutes before training session, read-out: ED50 i.p.
Setting [2] is: oral route, 60 minutes before training session, read-out: ED50 os.

The term ED50 denotes the dose at which the effect has come halfway, by size or by number of responders. As to `O=C(NCCCC(=O)N1CCCC1)c1cc(Br)no1` [Compound 8, N-[4-oxo-4-(1-pyrrolidinyl)butyl]-3-bromo-5-isoxazolecarboxamide], the 50% effective dose (ED50) was 25 µmol/kg under setting [1] and 80 µmol/kg under setting [2]. Turning to `O=C(NCCCC(=O)N1CCCC1=O)c1cc(Br)no1` [Compound 21, 1-[N-(3-bromo-5-isoxazolecarbonyl)-4-aminobutyroyl]-2-pyrrolidinone], the ED50 under setting [2] is 254 µmol/kg. `O=C(O)CCCNC(=O)CCCNC(=O)c1cc(Br)no1` [Compound 19, N-[N-(3-bromo-5-isoxazolecarbonyl)-4-aminobutyroyl]-4-aminobutyric acid]: the 50% effective dose (ED50) under setting [2] is 261 µmol/kg. On to `Cc1cc(C(=O)NCCCC(=O)O)on1` [Compound 4, N-(3-methyl-5-isoxazolecarbonyl)-4-aminobutyric acid], for which the 50% effective dose (ED50) under setting [1] was 202 µmol/kg and the ED50 under setting [2] is 383 µmol/kg. Consider `COc1ccc(C(=O)N2CCCC2=O)cc1` [Aniracetam, 1-(4-methoxy-benzoyl)-2-pyrrolidinone, reference compound], for which the median effective dose (ED50) runs as follows: under setting [1], 353 µmol/kg; under setting [2], 1110 µmol/kg. For `COc1cc(C(=O)NCCCC(=O)O)on1` [Compound 3, N-(3-methoxy-5-isoxazolecarbonyl)-4-aminobutyric acid] the same measures were 276 µmol/kg and 868 µmol/kg. For `NC(=O)CN1CCCC1=O` [Piracetam, 2-pyrrolidinoneacetamide, reference compound] the same measures were 329 µmol/kg and 1550 µmol/kg. On to `O=C(O)CCCNC(=O)c1cc(Cl)no1` [Compound 2, N-(3-chloro-5-isoxazolecarbonyl)-4-aminobutyric acid], for which the ED50 runs as follows: under setting [1], 160 µmol/kg; under setting [2], 260 µmol/kg. For `CCOC(=O)CNC(=O)CCCNC(=O)c1cc(Br)no1` [Compound 12, Ethyl N-[N-(3-bromo-5-isoxazolecarbonyl)-4-aminobutyroyl]glicinate] the same measures were 171 µmol/kg and 1000 µmol/kg.

As to `O=C(O)CCCNC(=O)c1cc(Br)no1` [Compound 1, N-(3-bromo-5-isoxazolecarbonyl)-4-aminobutyric acid], the 50% effective dose (ED50) reads like this: under setting [1], 102 µmol/kg; under setting [2], 290 µmol/kg.
